pEC50: −log10 of the molar value.
What was measured:
HBV [1] = experiment: anti-HBV activity, HepG2.2.15 stable transfected cell line, HBV DNA from secreted virions by realtime PCR; type: cell-based; details: Hepatitis B virus, 144 h, HepG2.2.15 cells, 6 days of treatment
HBV [2] = experiment: anti HBV activity, HepG2.117 inducibly HBV producing cell line (Tet-off), intracellular HBV DNA by realtime PCR; type: cell-based; details: Hepatitis B virus, 72 h, HepG2.117 cells, 3 days of treatment
[3] = Cytotoxicity, HepG2 cells, Resazurin assay; type: cell-based; details: human
[4] = ATP based toxicity assay (ATPlite), HepG2 cell line; details: human, HepG2 cells, ATPlite (ATP levels)
Method: Alternatively, cytotoxicity was determined via an ATP-assay: The ATPlite kit from Perkin Elmer was used to assess compound cytotoxicity on the HepG2 cell line by determination of the ATP (adenosine triphosphate) levels. ATP is a marker for functional integrity and cell viability, because it is present in all metabolically active cells and any form of cell injury will result in a rapid decline in cellular ATP concentration. After compound incubation, 1 volume of ATPlite solution was added to the cells and the luminescence signal was measured.

Row | SMILES | pEC50 (HBV [1]) | pEC50 (HBV [2]) | CC50 at 4 days [3] [µM] | CC50 at 4 days [4] [µM]
1 | C[C@@H](NS(=O)(=O)c1cn(C)c(C(=O)Nc2ccnc(C#N)c2)c1F)C(F)(F)F [Compound 18, N-(2-Cyanopyridin-4-yl)-3-fluoro-1-methyl-4-{[(1R)-2,2,2-trifluoro-1-methylethyl]sulfamoyl}-1H-pyrrole-2-carboxamide] | 7.52 | 7.52 | > 25 | > 25
2 | C[C@@H](NS(=O)(=O)c1cn(C)c(C(=O)Nc2ccnc(Cl)c2)c1F)C(F)(F)F [Compound 20, N-(2-chloro-4-pyridyl)-3-fluoro-1-methyl-[[(1R)-2,2,2-trifluoro-1-methyl-ethyl]sulfamoyl]pyrrole-2-carboxamide] | 7.52 | 7.70 | > 25 | > 25
3 | C[C@@H](NS(=O)(=O)c1cn(C)c(C(=O)Nc2ccnc(Br)c2)c1F)C(F)(F)F [Compound 23, N-(2-bromo-4-pyridyl)-3-fluoro-1-methyl-4-[[(1R)-2,2,2-trifluoro-1-methyl-ethyl]sulfamoyl]pyrrole-2-carboxamide] | 8.00 | 8.00 | > 25 | > 25
4 | C[C@@H](NS(=O)(=O)c1cn(C)c(C(=O)Nc2ccnc(F)c2)c1F)C(F)(F)F [Compound 24, 3-fluoro-N-(2-fluoro-4-pyridyl)-1-methyl-4-[[(1R)-2,2,2-trifluoro-1-methyl-ethyl]sulfamoyl]pyrrole-2-carboxamide] | 7.40 | 7.40 | > 25 | > 25
5 | Cc1c(S(=O)(=O)N[C@H](C)C(F)(F)F)c(Cl)c(C(=O)Nc2ccnc(C#N)c2)n1C [Compound 32, 3-chloro-N-(2-cyano-4-pyridyl)-1,5-dimethyl-4-[[(1R)-2,2,2-trifluoro-1-methyl-ethyl]sulfamoyl]pyrrole-2-carboxamide] | 7.70 | 7.70 | > 25 | > 25
6 | Cn1cc(S(=O)(=O)NC2(C(F)(F)F)CCC2)c(Cl)c1C(=O)Nc1ccnc(C#N)c1 [Compound 40, 3-chloro-N-(2-cyano-4-pyridyl)-1-methyl-4-[[1-(trifluoromethyl)cyclobutyl]sulfamoyl]pyrrole-2-carboxamide] | 7.70 | 7.70 | > 25 | > 25
7 | Cn1cc(S(=O)(=O)NC2(C(F)(F)F)CCC2)c(Cl)c1C(=O)Nc1ccnc(C(F)F)c1 [Compound 108, 3-chloro-N-[2-(difluoromethyl)-4-pyridyl]-1-methyl-4-[[1-(trifluoromethyl)cyclobutyl]sulfamoyl]pyrrole-2-carboxamide] | – | 7.70 | > 25 | > 25
8 | Cn1cc(S(=O)(=O)NC2(C)CC(F)(F)C2)c(Cl)c1C(=O)Nc1ccnc(Br)c1 [Compound 113, N-(2-bromo-4-pyridyl)-3-chloro-4-[(3,3-difluoro-1-methyl-cyclobutyl)sulfamoyl]-1-methyl-pyrrole-2-carboxamide] | – | 8.00 | > 25 | 23.7
9 | Cn1cc(S(=O)(=O)NC2(C)CC(F)(F)C2)c(Cl)c1C(=O)Nc1cc(F)nc(F)c1 [Compound 115, 3-chloro-4-[(3,3-difluoro-1-methyl-cyclobutyl)sulfamoyl]-N-(2,6-difluoro-4-pyridyl)-1-methyl-pyrrole-2-carboxamide] | – | 8.22 | > 25 | > 25
10 | Cn1cc(S(=O)(=O)NC2(C)CC(F)(F)C2)c(F)c1C(=O)Nc1cc(F)nc(F)c1 [Compound 132, 4-[(3,3-difluoro-1-methyl-cyclobutyl)sulfamoyl]-N-(2,6-difluoro-4-pyridyl)-3-fluoro-1-methyl-pyrrole-2-carboxamide] | – | 8.00 | > 25 | > 25
11 | Cc1cc(NC(=O)c2c(F)c(S(=O)(=O)NC3(C)CC(F)(F)C3)cn2C)cc(F)n1 [Compound 134, 4-[(3,3-difluoro-1-methyl-cyclobutyl)sulfamoyl]-3-fluoro-N-(2-fluoro-6-methyl-4-pyridyl)-1-methyl-pyrrole-2-carboxamide] | – | 8.00 | > 25 | > 25
12 | C[C@@H](NS(=O)(=O)c1cn(C)c(C(=O)Nc2ccnc(Br)c2F)c1Cl)C(F)(F)F [Compound 139, N-(2-bromo-3-fluoro-4-pyridyl)-3-chloro-1-methyl-4-[[(1R)-2,2,2-trifluoro-1-methyl-ethyl]sulfamoyl]pyrrole-2-carboxamide] | – | 7.70 | > 25 | > 25
13 | Cc1cc(NC(=O)c2c(Cl)c(S(=O)(=O)N[C@H](C)C(C)(F)F)cn2C)cc(F)n1 [Compound 146, 3-chloro-4-[[(1R)-2,2-difluoro-1-methyl-propyl]sulfamoyl]-N-(2-fluoro-6-methyl-4-pyridyl)-1-methyl-pyrrole-2-carboxamide] | – | 7.52 | > 25 | > 25
14 | Cc1cc(NC(=O)c2c(F)c(S(=O)(=O)N[C@H](C)C(F)(F)F)cn2C)cc(Br)n1 [Compound 154, N-(2-bromo-6-methyl-4-pyridyl)-3-fluoro-1-methyl-4-[[(1R)-2,2,2-trifluoro-1-methyl-ethyl]sulfamoyl]pyrrole-2-carboxamide] | – | 7.10 | > 25 | > 25
15 | Cc1cc(NC(=O)c2c(F)c(S(=O)(=O)N[C@H](C)C(C)(F)F)cn2C)cc(Cl)n1 [Compound 158, N-(2-chloro-6-methyl-4-pyridyl)-4-[[(1R)-2,2-difluoro-1-methyl-propyl]sulfamoyl]-3-fluoro-1-methyl-pyrrole-2-carboxamide] | – | 7.30 | > 25 | > 25
16 | Cc1cc(NC(=O)c2c(F)c(S(=O)(=O)N[C@H](C)C(C)(F)F)cn2C)cc(F)n1 [Compound 160, 4-[[(1R)-2,2-difluoro-1-methyl-propyl]sulfamoyl]-3-fluoro-N-(2-fluoro-6-methyl-4-pyridyl)-1-methyl-pyrrole-2-carboxamide] | – | 8.00 | > 25 | > 25
17 | Cc1cc(NC(=O)c2c(F)c(S(=O)(=O)NC3(C(F)(F)F)CCC3)cn2C)cc(F)n1 [Compound 172, 3-fluoro-N-(2-fluoro-6-methyl-4-pyridyl)-1-methyl-4-[[1-(trifluoromethyl)cyclobutyl]sulfamoyl]pyrrole-2-carboxamide] | – | 8.00 | > 25 | > 25
18 | Cn1cc(S(=O)(=O)NC2(C(F)(F)F)CC2)c(F)c1C(=O)Nc1ccnc(Cl)c1 [Compound 175, N-(2-chloro-4-pyridyl)-3-fluoro-1-methyl-4-[[1-(trifluoromethyl)cyclopropyl]sulfamoyl]pyrrole-2-carboxamide] | 6.92 | 7.70 | – | > 25
19 | C[C@@H](NS(=O)(=O)c1cn(C)c(C(=O)Nc2ccnc(Br)c2F)c1F)C(C)(F)F [Compound 176, N-(2-bromo-3-fluoro-4-pyridyl)-4-[[(1R)-2,2-difluoro-1-methyl-propyl]sulfamoyl]-3-fluoro-1-methyl-pyrrole-2-carboxamide] | > 7.00 | 8.52 | – | > 25
20 | Cc1cc(NC(=O)c2c(Cl)c(S(=O)(=O)N[C@H](C)C(F)(F)F)cn2C)cc(C(F)F)n1 [Compound 177, 3-chloro-N-[2-(difluoromethyl)-6-methyl-4-pyridyl]-1-methyl-[[(1R)-2,2,2-trifluoro-1-methyl-ethyl]sulfamoyl]pyrrole-2-carboxamide] | 6.59 | 7.00 | – | > 25
21 | Cc1cc(NC(=O)c2c(F)c(S(=O)(=O)N[C@H](C)C(C)(F)F)cn2C)cc(C(F)F)n1 [Compound 178, N-[2-(difluoromethyl)-6-methyl-4-pyridyl]-4-[[(1R)-2,2-difluoro-1-methyl-propyl]sulfamoyl]-3-fluoro-1-methyl-pyrrole-2-carboxamide] | 6.62 | 7.30 | – | > 25
22 | Cc1cc(NC(=O)c2c(F)c(S(=O)(=O)N[C@H](C)C(F)(F)F)cn2C)cc(C(F)F)n1 [Compound 179, N-[2-(difluoromethyl)-6-methyl-4-pyridyl]-3-fluoro-1-methyl-[[(1R)-2,2,2-trifluoro-1-methyl-ethyl]sulfamoyl]pyrrole-2-carboxamide] | 6.68 | 7.15 | – | > 25
23 | C[C@@H](NS(=O)(=O)c1cn(C)c(C(=O)Nc2cc(F)nc(F)c2Cl)c1Cl)C(F)(F)F [Compound 185, 3-chloro-N-(3-chloro-2,6-difluoro-4-pyridyl)-1-methyl-4-[[(1R)-2,2,2-trifluoro-1-methyl-ethyl]sulfamoyl]pyrrole-2-carboxamide] | – | 6.13 | > 25 | > 25
24 | Cc1c(S(=O)(=O)N[C@H](C)C(F)(F)F)c(F)c(C(=O)Nc2cc(F)nc(F)c2)n1C [Compound 199, N-(2,6-difluoro-4-pyridyl)-3-fluoro-1,5-dimethyl-4-[[(1R)-2,2,2-trifluoro-1-methyl-ethyl]sulfamoyl]pyrrole-2-carboxamide] | > 7.00 | 8.22 | – | > 25
25 | Cc1c(S(=O)(=O)N[C@H](C)C(F)(F)F)c(F)c(C(=O)Nc2ccnc(Cl)c2)n1C [Compound 200, N-(2-chloro-4-pyridyl)-3-fluoro-1,5-dimethyl-4-[[(1R)-2,2,2-trifluoro-1-methyl-ethyl]sulfamoyl]pyrrole-2-carboxamide] | 6.96 | 7.70 | – | > 25
